Some results are limits rather than exact numbers.

For the first experiment, the target named is T1, androgen receptor (AR) splicing variant AR-v7 (Homo sapiens, UniProt P10275).
T1 construct: The degradation activity of compounds on AR-v7 in 22RV1 cells; host or cells: 22RV1 cells
T1 sequence (P10275 1-644 isoform P10275-3): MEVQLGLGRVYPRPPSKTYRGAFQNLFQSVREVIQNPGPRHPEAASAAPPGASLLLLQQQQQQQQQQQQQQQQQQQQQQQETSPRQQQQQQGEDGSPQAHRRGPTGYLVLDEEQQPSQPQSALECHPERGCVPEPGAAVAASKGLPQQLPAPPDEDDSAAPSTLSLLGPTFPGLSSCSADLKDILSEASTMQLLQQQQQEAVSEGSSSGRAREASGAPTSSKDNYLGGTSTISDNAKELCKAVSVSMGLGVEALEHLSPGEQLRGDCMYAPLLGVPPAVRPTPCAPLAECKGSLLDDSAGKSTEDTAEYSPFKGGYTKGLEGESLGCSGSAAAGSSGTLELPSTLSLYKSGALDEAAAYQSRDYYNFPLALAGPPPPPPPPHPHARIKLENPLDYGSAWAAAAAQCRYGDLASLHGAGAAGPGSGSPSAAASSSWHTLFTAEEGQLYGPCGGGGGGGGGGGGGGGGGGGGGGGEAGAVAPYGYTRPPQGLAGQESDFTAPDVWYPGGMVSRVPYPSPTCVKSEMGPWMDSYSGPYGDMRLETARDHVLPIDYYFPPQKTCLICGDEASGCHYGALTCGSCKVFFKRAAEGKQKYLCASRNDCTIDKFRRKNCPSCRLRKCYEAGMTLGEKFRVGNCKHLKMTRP
As to the kind of experiment: Degradation activity on androgen receptor splicing variant AR-v7 in 22RV1 cells (ELISA). The format is cell-based. Conditions: AR-v7 degradation in 22RV1 cells, 48 h, class symbols.
In general, DC50 refers to the midpoint of the concentration-degradation curve. In the case of `CN(C)[C@@H]1CCCN(c2nccc(COc3ccc(C(C)(C)c4ccc(O[C@H]5C[C@@H](Nc6ccc7c(c6)C(=O)N(C6CCC(=O)NC6=O)C7=O)C5)cc4)cc3)n2)C1` (some centres unmarked) [Example 402], the 50% degradation concentration (DC50) is 11 to 100 nM. As to `CN[C@H]1CCCN(c2nccc(COc3ccc(C(C)(C)c4ccc(O[C@H]5C[C@@H](Nc6ccc7c(c6)C(=O)N(C6CCC(=O)NC6=O)C7=O)C5)cc4)cc3)n2)C1` (some centres unmarked) [Example 403], the DC50 was in the range of 11 to 100 nM. Consider `CN(C)C1CCCN(c2nccc(COc3ccc(C(C)(C)c4ccc(O[C@H]5C[C@@H](Nc6ccc7c(c6)C(=O)N(C6CCC(=O)NC6=O)C7=O)C5)cc4)cc3)n2)C1` (some centres unmarked) [Example 404], for which the 50% degradation concentration (DC50) lay in the range of 11 to 100 nM. The same measure, in the same setting: in the case of `CN1CC(Oc2nccc(COc3ccc(C(C)(C)c4ccc(O[C@H]5C[C@@H](Nc6ccc7c(c6)C(=O)N(C6CCC(=O)NC6=O)C7=O)C5)cc4)cc3)n2)C1` (some centres unmarked) [Example 407] it was 11 to 100 nM; in that of `C[C@@H]1CN(c2nccc(COc3ccc(C(C)(C)c4ccc(O[C@H]5C[C@@H](Nc6ccc7c(c6)C(=O)N(C6CCC(=O)NC6=O)C7=O)C5)cc4)cc3)n2)[C@H](C)CN1` (some centres unmarked) [Example 408], 11 to 100 nM.

Consider `C[C@@H]1CN(c2nccc(COc3ccc(C(C)(C)c4ccc(O[C@H]5C[C@@H](Nc6ccc7c(c6)C(=O)N(C6CCC(=O)NC6=O)C7=O)C5)cc4)cc3)n2)[C@H](C)CN1C` (some centres unmarked) [Example 409], for which the half-maximal degradation concentration (DC50) is 11 to 100 nM. Still for that read-out and setting: in the case of `C[C@@H]1CN[C@@H](C)CN1c1nccc(COc2ccc(C(C)(C)c3ccc(O[C@H]4C[C@@H](Nc5ccc6c(c5)C(=O)N(C5CCC(=O)NC5=O)C6=O)C4)cc3)cc2)n1` (some centres unmarked) [Example 411] it was 11 to 100 nM; in that of `C[C@@H]1CN(C)[C@@H](C)CN1c1nccc(COc2ccc(C(C)(C)c3ccc(O[C@H]4C[C@@H](Nc5ccc6c(c5)C(=O)N(C5CCC(=O)NC5=O)C6=O)C4)cc3)cc2)n1` (some centres unmarked) [Example 412], 11 to 100 nM; in that of `Cn1nccc1-c1nccc(COc2ccc(C(C)(C)c3ccc(O[C@H]4C[C@@H](Nc5ccc6c(c5)C(=O)N(C5CCC(=O)NC5=O)C6=O)C4)cc3)cc2)n1` (some centres unmarked) [Example 417], 11 to 100 nM. Take `Cn1cc(-c2cccc(COc3ccc(C(C)(C)c4ccc(O[C@H]5C[C@@H](Nc6ccc7c(c6)C(=O)N(C6CCC(=O)NC6=O)C7=O)C5)cc4)cc3)n2)cn1` (some centres unmarked) [Example 418]: the half-maximal degradation concentration (DC50) is 11 to 100 nM. Same read-out and setting: in the case of `Cc1nc(-c2cccc(Oc3ccc(C(C)(C)c4ccc(O[C@H]5C[C@@H](Nc6ccc7c(c6)C(=O)N(C6CCC(=O)NC6=O)C7=O)C5)cc4)cc3)n2)no1` (some centres unmarked) [Example 422] it was 11 to 100 nM; in that of `CC(C)(c1ccc(Oc2ccc(N3CC(N4CC(F)(F)C4)C3)nn2)cc1)c1ccc(O[C@H]2C[C@H](Nc3ccc4c(c3)C(=O)N(C3CCC(=O)NC3=O)C4=O)C2)cc1` (some centres unmarked) [Example 424], 11 to 100 nM. Turning to `C[C@@H]1CN(c2nccc(COc3ccc(C(C)(C)c4ccc(O[C@H]5C[C@@H](Nc6ccc7c(c6)C(=O)N(C6CCC(=O)NC6=O)C7=O)C5)cc4)cc3)n2)C[C@H](C)N1` (some centres unmarked) [Example 433, 5-(((1s,3s)-3-(4-(2-(4-((2-((3s,5r)-3,5-dimethylpiperazin-1-yl)pyrimidin-4-yl)methoxy)phenyl)propan-2-yl)phenoxy)cyclobutyl)amino)-2-(2,6-dioxopiperidin-3-yl)isoindolin-1,3-dione], the DC50 lay within 11 to 100 nM. `CC(C)(c1ccc(OCCCNc2cccc3c2C(=O)N(C2CCC(=O)NC2=O)C3=O)cc1)c1ccc(OCc2cnc(N3CCOCC3)s2)cc1` (centres unmarked) [Example 435, 2-(2,6-dioxopiperidin-3-yl)-4-((3-(4-(2-(4-((2-morpholinethiazol-5-yl)methoxy)phenyl)propan-2-yl)phenoxy)propyl)amino)isoindolin-1,3-dione] returned a 50% degradation concentration (DC50) of 1000 to 5000 nM. For `CCC(CC)(c1ccc(OCCCNc2ccc3c(c2)C(=O)N(C2CCC(=O)NC2=O)C3=O)cc1)c1ccc(OCc2ccnc(C(C)=O)n2)cc1` (centres unmarked) [Example 439, 5-((3-(4-(3-(4-((2-acetylpyrimidin-4-yl)methoxy)phenyl)pentan-3-yl)phenoxy)propyl)amino)-2-(2,6-dioxopiperidine-3-amino)isoindolin-1,3-dione], the DC50 is 11 to 100 nM. With `CC(C)(c1ccc(OCCCNc2ccc3c(c2)C(=O)N(C2CCC(=O)NC2=O)C3=O)cc1)c1ccc(OCc2ccnc(N3CCCC3)n2)cc1` (centres unmarked) [Example 440, 2-(2,6-dioxopiperidin-3-yl)-5-((3-(4-(2-(4-((2-(pyrrolidin-1-yl)pyrimidin-4-yl)methoxy)phenyl)propan-2-yl)phenoxy)propyl)amino)isoindolin-1,3-dione], the DC50 was in the range of 11 to 100 nM. In turn, `CC(C)(c1ccc(OCCCNc2ccc3c(c2)C(=O)N(C2CCC(=O)NC2=O)C3=O)cc1)c1ccc(OCc2nc(C(N)=O)cs2)cc1` (centres unmarked) [Example 441, 2-((4-(2-(4-(3-((2-(2,6-dioxopiperidin-3-yl)-1,3-dioxoisoindolin-5-yl)amino)propoxy)phenyl)propan-2-yl)phenoxy)methyl) thiazol-4-carbonylamine] showed a half-maximal degradation concentration (DC50) of 11 to 100 nM. Compound `CC(C)(c1ccc(OCCCNc2ccc3c(c2)C(=O)N(C2CCC(=O)NC2=O)C3=O)cc1)c1ccc(OCc2nc3ncccc3o2)cc1` (centres unmarked) [Example 442, 2-(2,6-dioxopiperidin-3-yl)-5-((3-(4-(2-(4-(oxazolo[4,5-b]pyridin-2-ylmethoxy)phenyl)propan-2-yl)phenoxy)propyl)amino)isoindolin-1,3-dione] came in with a DC50 of 11 to 100 nM. With `CC(C)(c1ccc(OCCCNc2cccc3c2C(=O)N(C2CCC(=O)NC2=O)C3=O)cc1)c1ccc(OCc2nc3ncccc3o2)cc1` (centres unmarked) [Example 443, 2-(2,6-dioxopiperidin-3-yl)-4-((3-(4-(2-(4-(oxazolo[4,5-b]pyridin-2-ylmethoxy)phenyl)propan-2-yl)phenoxy)propyl)amino)isoindolin-1,3-dione], the 50% degradation concentration (DC50) was 11 to 100 nM. Consider `CC1(CNc2nccc(COc3ccc(C(C)(C)c4ccc(O[C@H]5C[C@@H](Nc6ccc7c(c6)C(=O)N(C6CCC(=O)NC6=O)C7=O)C5)cc4)cc3)n2)CNC1` (some centres unmarked) [Example 457], for which the DC50 lay within 11 to 100 nM. `CC1(C)CN(c2nccc(COc3ccc(C(C)(C)c4ccc(O[C@H]5C[C@@H](Nc6ccc7c(c6)C(=O)N(C6CCC(=O)NC6=O)C7=O)C5)cc4)cc3)n2)CCN1` (some centres unmarked) [Example 458, 5-(((1s,3s)-3-(4-(2-(4-((2-(3,3-dimethylpiperazin-1-yl)pyrimidin-4-yl)methoxy)phenyl)propan-2-yl)phenoxy)cyclobutyl)amino)-2-(2,6-dioxopiperidin-3-yl)isoindolin-1,3-dione]: the 50% degradation concentration (DC50) is 11 to 100 nM.

In turn, `CC(C)(c1ccc(Oc2ccnc(N3CC4(COC4)C3)n2)cc1)c1ccc(O[C@H]2C[C@@H](Nc3ccc4c(c3)C(=O)N(C3CCC(=O)NC3=O)C4=O)C2)cc1` (some centres unmarked) [Example 459] showed a half-maximal degradation concentration (DC50) of 11 to 100 nM. On to `Cn1nc(C(F)(F)F)cc1-c1nccc(COc2ccc(C(C)(C)c3ccc(O[C@H]4C[C@@H](Nc5ccc6c(c5)C(=O)N(C5CCC(=O)NC5=O)C6=O)C4)cc3)cc2)n1` (some centres unmarked) [Example 462], for which the DC50 fell in the range of 101 to 1000 nM. The same measure, in the same setting: the same measure for `CCN1CC(Oc2nccc(COc3ccc(C(C)(C)c4ccc(O[C@H]5C[C@@H](Nc6ccc7c(c6)C(=O)N(C6CCC(=O)NC6=O)C7=O)C5)cc4)cc3)n2)C1` (some centres unmarked) [Example 466]: 11 to 100 nM; for `CC(C)(c1ccc(OCc2ccnc(OC3CN(C4CC4)C3)n2)cc1)c1ccc(O[C@H]2C[C@@H](Nc3ccc4c(c3)C(=O)N(C3CCC(=O)NC3=O)C4=O)C2)cc1` (some centres unmarked) [Example 467, 5-(((1s,3s)-3-(4-(2-(4-((2-((1-cyclopropylazetidin-3-yl)oxy)pyrimidin-4-yl)methoxy)phenyl)propan-2-yl)phenoxy)cyclobutyl)amino)-2-(2,6-dioxopiperidin-3-yl)isoindolin-1,3-dione]: 11 to 100 nM; for `CC(C)(c1ccc(Oc2ccnc(-n3nccn3)n2)cc1)c1ccc(O[C@H]2C[C@H](Nc3ccc4c(c3)C(=O)N(C3CCC(=O)NC3=O)C4=O)C2)cc1` (some centres unmarked) [Example 469, 5-(((1r,3r)-3-(4-(2-(4-((2-(2H-1,2,3-triazol-2-yl)pyrimidin-4-yl)oxy)phenyl)propan-2-yl)phenoxy)cyclobutyl)amino)-2-(2,6-dioxopiperidin-3-yl)isoindolin-1,3-dione]: 11 to 100 nM. Take `Cc1noc(-c2cccc(COc3ccc(C(C)(C)c4ccc(O[C@H]5C[C@@H](Nc6ccc7c(c6)C(=O)N(C6CCC(=O)NC6=O)C7=O)C5)cc4)cc3)n2)n1` (some centres unmarked) [Example 472]: the DC50 fell in the range of 11 to 100 nM. Compound `Cc1nc(-c2ccnc(Oc3ccc(C(C)(C)c4ccc(O[C@H]5C[C@H](Nc6ccc7c(c6)C(=O)N(C6CCC(=O)NC6=O)C7=O)C5)cc4)cc3)c2)no1` (some centres unmarked) [Example 474] returned a DC50 of 11 to 100 nM.

Still in this experiment, the particulars now being: AR-v7 degradation in 22RV1 cells, 48 h, numeric values.
The compound `CC(C)(c1ccc(OCCCCCCCCOCCCCNc2ccc3c(c2)C(=O)N(C2CCC(=O)NC2=O)C3=O)cc1)c1ccc(OCc2ccnc(-n3cccn3)n2)cc1` (centres unmarked) [Example 437, 5-((4-((8-(4-(2-(4-((2-(1H-pyrazol-1-yl)pyrimidin-4-yl)methoxy)phenyl)propan-2-yl)phenoxy)octyl)oxy)butyl)amino)-2-(2,6-dioxopiperidin-3-yl)isoindolin-1,3-dione] registered a DC50 greater than 10000 nM.

These data come from US20250051347A1, “BIFUNCTIONAL CHIMERIC HETEROCYCLIC COMPOUND AND USE THEREOF AS ANDROGEN RECEPTOR DEGRADER” (Hinova Pharmaceuticals, Inc., priority 2021, published 2025).
